Source: the NIST ThermoML archive (doi:10.1021/je030218b)

How the values were obtained:
[1] = Liquid; for mass density / speed of sound: 298.15 K, 101.33 kPa
[2] = refractive index (Na D-line) (dimensionless); settings: 298.15 K; 101.33 kPa; Liquid; Standard Abbe refractometry
[3] = xn = mol fraction of the nth substance listed; settings: 298.15 K, 101 kPa, Liquid
[4] = refractive index (Na D-line) (dimensionless); xn = mol fraction of the nth substance listed; settings: 298.15 K, 101 kPa, Liquid, Standard Abbe refractometry

CC(C)CO [2-methyl-1-propanol]
Settings | mass density [kg/m3] | refractive index | speed of sound [m/s]
[1] | 797.84 | – | 1185.6
[2] | – | 1.3937 | –

Settings | vapor or sublimation pressure [kPa]
[1], 381 K | 101.3

CC(C)CO [2-methyl-1-propanol] + CCOC(C)=O
Settings | refractive index, [4] | speed of sound, [3] [m/s]
x2 = 0.052 | 1.39253 | 1186.1
x2 = 0.104 | 1.39136 | 1184.4
x2 = 0.155 | 1.39012 | 1182.9
x2 = 0.206 | 1.3889 | 1181.5
x2 = 0.258 | 1.38753 | 1179.3
x2 = 0.308 | 1.38611 | 1177.5
x2 = 0.359 | 1.3847 | 1175.6
x2 = 0.41 | 1.3833 | 1174.2
x2 = 0.46 | 1.38169 | 1171.3
x2 = 0.51 | 1.3803 | 1169
x2 = 0.56 | 1.37842 | 1165.2
x2 = 0.609 | 1.37674 | 1163
x2 = 0.659 | 1.37505 | 1160.4
x2 = 0.708 | 1.37301 | 1158.2
x2 = 0.757 | 1.37111 | 1155.3
x2 = 0.806 | 1.36884 | 1152.8
x2 = 0.855 | 1.36675 | 1150.1
x2 = 0.904 | 1.36431 | 1147.4
x2 = 0.952 | 1.36189 | 1144.7

CCO [ethanol]
Settings | mass density [kg/m3] | refractive index | speed of sound [m/s]
[1] | 785.36 | – | 1143.1
[2] | – | 1.35916 | –

Settings | vapor or sublimation pressure [kPa]
[1], 351.5 K | 101.3

CCOC(C)=O [ethyl acetate]
Settings | mass density [kg/m3] | refractive index | speed of sound [m/s]
[1] | 894.24 | – | 1137.7
[2] | – | 1.3698 | –

Settings | vapor or sublimation pressure [kPa]
[1], 350.25 K | 101.3

CCCCCO [pentan-1-ol]
Settings | mass density [kg/m3] | refractive index | speed of sound [m/s]
[1] | 810.96 | – | 1273.3
[2] | – | 1.4077 | –

Settings | vapor or sublimation pressure [kPa]
[1], 410.59 K | 101.3

CCCCCO [pentan-1-ol] + CCOC(C)=O
Settings | mass density, [3] [kg/m3] | refractive index, [4] | speed of sound, [3] [m/s]
x2 = 0.05 | 814.16 | 1.40579 | 1263.5
x2 = 0.101 | 817.63 | 1.40382 | 1253.8
x2 = 0.15 | 821.07 | 1.40193 | 1245
x2 = 0.2 | 824.6 | 1.40012 | 1236.5
x2 = 0.251 | 828.3 | 1.39803 | 1227.5
x2 = 0.3 | 831.9 | 1.39629 | 1219.9
x2 = 0.35 | 835.73 | 1.39423 | 1211.9
x2 = 0.4 | 839.69 | 1.3925 | 1204.5
x2 = 0.45 | 843.69 | 1.39052 | 1198.2
x2 = 0.5 | 847.81 | 1.38863 | 1190.5
x2 = 0.549 | 851.89 | 1.38676 | 1184.1
x2 = 0.599 | 856.06 | 1.38493 | 1178.8
x2 = 0.65 | 860.53 | 1.38303 | 1172.1
x2 = 0.7 | 865.01 | 1.38107 | 1166.8
x2 = 0.749 | 869.4 | 1.37919 | 1161.7
x2 = 0.8 | 874.19 | 1.37733 | 1157.1
x2 = 0.85 | 879 | 1.37548 | 1152.2
x2 = 0.898 | 883.69 | 1.3736 | 1148
x2 = 0.947 | 888.68 | 1.37188 | 1144.1
